These results are taken from ChEMBL document CHEMBL1201862, “PubChem BioAssay data set” (2004).

Assay [1] addresses T1, Oxysterols receptor LXR-beta (Homo sapiens, UniProt P55055).
T1 sequence (P55055 whole entry): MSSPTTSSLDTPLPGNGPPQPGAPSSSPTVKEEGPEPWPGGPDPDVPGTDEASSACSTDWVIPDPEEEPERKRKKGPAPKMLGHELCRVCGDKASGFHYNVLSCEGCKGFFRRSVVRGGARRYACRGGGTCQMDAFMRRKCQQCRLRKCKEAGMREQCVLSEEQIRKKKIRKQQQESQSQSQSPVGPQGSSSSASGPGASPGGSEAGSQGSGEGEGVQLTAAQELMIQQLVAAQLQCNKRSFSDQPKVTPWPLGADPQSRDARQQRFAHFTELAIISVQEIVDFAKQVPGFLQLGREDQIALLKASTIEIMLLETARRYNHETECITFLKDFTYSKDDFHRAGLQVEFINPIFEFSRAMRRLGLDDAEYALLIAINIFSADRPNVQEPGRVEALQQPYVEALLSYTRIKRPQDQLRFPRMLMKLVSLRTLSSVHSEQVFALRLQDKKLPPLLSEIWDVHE
Type of assay: functional, cell-based.

Assay [2] is described as follows: cytotoxicity toward NIH3T3 fibroblasts, dose response, counter-screen, cell-based, ATP luminescence, mouse fibroblasts (AID 2010).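 Also: cells exposed to compound for about 90 hours before reading.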 Type of assay: functional. Background: Counterscreens check selectivity or assay interference.
The nature of assay [3]: Vero cell cytotoxicity, dose response, cytotoxicity control for Vif-APOBEC3G degradation inhibitor project, Vero cells (AID 1117358). Conditions: Human immunodeficiency virus 1, Vero. It is filed as functional.
A short description of assay [4]: inhibitors of intracellular T. cruzi replication, confirmation, NIH3T3 host cells, beta-gal luminescence (AID 2044).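 Also: intracellular parasites grown in NIH/3T3 mouse fibroblasts as host cells; luminescent beta-galactosidase reporter signal from transgenic T. cruzi replicating inside host cells; inhibitors lower the luminescence signal.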 Type of assay: functional, cell-based.
Assay [5] has as its target T2, COUP transcription factor 2 (Homo sapiens, UniProt P24468).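 Also: HEK293 cells transiently cotransfected with COUP-TFII expression vector and reporter; luciferase reporter luminescence driven by COUP-TFII from the pX2-168 reporter plasmid.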
T2 sequence (P24468 whole entry): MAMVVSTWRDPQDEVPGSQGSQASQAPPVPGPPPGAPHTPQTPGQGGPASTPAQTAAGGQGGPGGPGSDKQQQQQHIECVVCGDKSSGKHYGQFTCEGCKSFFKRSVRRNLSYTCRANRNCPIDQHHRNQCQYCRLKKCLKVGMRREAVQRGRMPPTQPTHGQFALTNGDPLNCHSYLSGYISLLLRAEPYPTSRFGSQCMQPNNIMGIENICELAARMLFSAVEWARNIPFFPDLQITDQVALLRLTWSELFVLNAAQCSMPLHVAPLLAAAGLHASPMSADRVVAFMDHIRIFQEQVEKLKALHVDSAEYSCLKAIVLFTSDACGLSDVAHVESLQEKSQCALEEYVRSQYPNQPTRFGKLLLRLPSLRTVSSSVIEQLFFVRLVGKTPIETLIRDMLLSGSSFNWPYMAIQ
Briefly: Luminescence-based cell-based high throughput dose response assay to identify inhibitors of COUP-TFII (NR2F2). Type of assay: functional.

A short description of assay [6]: cytotoxicity in HEK-293T NF-kB-Luc cells, dose response, cytotoxicity control for B/T-cell NF-kB inhibitor project, cell-based, uHTS hits (AID 489019).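 Also: IC50 reflects cytotoxicity as loss of cell viability.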 It is filed as functional.
Assay [7] deals with Jurkat. Briefly: antigen receptor-induced NF-kB inhibitors, dose response, Jurkat, luciferase reporter, luminescence, B- and T-cell (AID 489004).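 Also: NF-kB luciferase reporter Jurkat cells stimulated with PMA plus ionomycin.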 It is filed as functional, cell-based. Conditions: Homo sapiens. For orientation: A reporter such as luciferase makes a cellular process visible.
The nature of assay [8]: off-target signal loss in HeLa-CEM21 co-culture – HeLa F-luc CTL cells, cherry-picked, counter-screen for HIV-1 Env fusion inhibitor project, dose response (AID 652040).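 Also: potency for signal decrease marking cytotoxic or nonspecific inhibition.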 Type of assay: functional, cell-based.
A short description of assay [9]: inhibitors of clade B AD8 Env fusion, dose response, cell-based, cherry-pick (AID 652062).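 Also: luciferase signal from cell-cell fusion driven by HIV-1 clade B AD8 Env; potency is for inhibitors of fusion seen as a drop in luminescence.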 It is filed as functional.
A short description of assay [10]: inhibitors of HIV Env-driven cell fusion, dose response, cherry-pick (AID 652057). Type of assay: functional, cell-based.
Assay [11] can be described thus: ZM109 Env clade C HIV-1 fusion inhibitors, dose response, HeLa effector, CEM target cells, luciferase, cherry-pick (AID 652058). Type of assay: functional, cell-based.
Assay [12] can be described thus: inhibitors of Vif binding to APOBEC3G peptide, primary screen, biochemical, TR-FRET, GST-Vif 1-94, biotin-A3G peptide, dose response retest (AID 1117319).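 Also: TR-FRET signal of purified GST-Vif binding a biotinylated A3G peptide; inhibitors lower the FRET signal by blocking Vif and A3G binding.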 It is filed as functional. For orientation: Time-resolved FRET reads energy transfer from a long-lived donor to a nearby acceptor.
A short description of assay [13]: Luminescence Cell-Based Dose Confirmation HTS to Identify Activators of 5'UTR Stem-Loop Driven Alpha-Synuclein mRNA Translation in H4 Neuroglioblastoma Cells. [Related pubchem assays: 1829 (Project Summary), 1814 (Primary HTS)]. Type of assay: functional.
Assay [14] in a line: cells. Type of assay: functional, cell-based.
For assay [15], the system named is H4. Nature of the assay: Luminescence Cell-Based Dose Response HTS to Identify Activators of 5'UTR Stem-Loop Driven Prion Protein mRNA Translation in H4 Neuroglioblastoma Cells. [Related pubchem assays: 1829 (Project Summary), 1814 (Primary HTS)]. Type of assay: functional. To be noted: Homo sapiens.
A short description of assay [16]: cells. It is filed as functional, cell-based. This is another data set of the same source.
Assay [17] in a line: Luminescence Cell-Based Dose Response HTS to Identify Activators of Luciferase Translation or Activity in H4 […] Cells. [Related pubchem assays: 1829 (Project Summary), 1814 (Primary HTS)]. It is filed as functional.
Assay [18] deals with T3, Microphthalmia-associated transcription factor (Homo sapiens, UniProt O75030).
T3 sequence (O75030 whole entry): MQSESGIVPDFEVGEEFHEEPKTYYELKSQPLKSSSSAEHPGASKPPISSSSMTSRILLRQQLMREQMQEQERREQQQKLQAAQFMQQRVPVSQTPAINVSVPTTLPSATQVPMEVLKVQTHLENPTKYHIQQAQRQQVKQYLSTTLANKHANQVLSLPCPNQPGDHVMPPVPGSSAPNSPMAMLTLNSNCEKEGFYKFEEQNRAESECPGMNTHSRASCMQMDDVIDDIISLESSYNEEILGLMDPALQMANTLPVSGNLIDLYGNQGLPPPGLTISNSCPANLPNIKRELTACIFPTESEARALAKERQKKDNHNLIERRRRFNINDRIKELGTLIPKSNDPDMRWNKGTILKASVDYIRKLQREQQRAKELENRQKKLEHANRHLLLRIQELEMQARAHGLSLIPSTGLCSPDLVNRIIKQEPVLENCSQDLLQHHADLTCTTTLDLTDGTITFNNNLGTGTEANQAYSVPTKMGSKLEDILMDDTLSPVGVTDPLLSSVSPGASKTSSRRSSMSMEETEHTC
Briefly: TRPM1 promoter luciferase signal decrease, dose response, MITF inhibitor project, cell-based, SK-MEL-5, cherry-picked, set 3 (AID 493073).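 Also: SK-MEL-5 melanoma cells with luciferase driven by the MITF target TRPM1 promoter.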 It is filed as functional.

A short description of assay [19]: HepG2 cell cytotoxicity, dose response, cytotoxicity control for Shn3 inhibitor project, CellTiter-Glo, cherry-picked (AID 624134). It is filed as functional, cell-based.
Assay [20] concerns INS1. Nature of the assay: beta cell apoptosis inhibitors, cytokine rescue, dose response, luminescence, retest (AID 449756).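 Also: cell death triggered by IL-1 beta plus TNF-alpha plus IFN-gamma mixture; protective hits raise ATP signal compared with cytokine alone wells.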 Type of assay: functional, cell-based. Conditions: Rattus norvegicus.
A short description of assay [21]: Shn3 3'UTR reporter inhibitors, dose response, cell-based, Clone20 osteoblasts, firefly luciferase, cherry-picked (AID 624132).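 Also: firefly luciferase luminescence from reporter carrying the Shn3 3'UTR in osteoblasts.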 Type of assay: functional.
A short description of assay [22]: control 3'UTR Renilla luciferase suppression, dose response, counter-screen for Shn3 inhibitor project, cell-based, Clone20-Shn3RL, cherry-picked (AID 624133). It is filed as functional.
In assay [23] the target is Heat shock protein HSP 90-alpha (Homo sapiens, UniProt P07900). Briefly: Luminescence-based dose response biochemical high throughput screening assay for inhibitors of the Heat Shock Protein 90 (HSP90). [Related pubchem assays: 1831 (Summary AID.), 1846 (Confirmation screen.), 1789 (Primary screen.)].
The nature of assay [24]: THP-1 cell cytotoxicity, dose response, cytotoxicity control for Vif-APOBEC3G degradation inhibitor project, THP-1 cells (AID 1117359). Type of assay: functional. To be noted: Human immunodeficiency virus 1, THP-1.

Molecules are shown by their SMILES. Calls of active or inactive are those of the source.

For `O=c1c2ccccc2nnn1CSc1ccccc1F`, the EC50 in assay [1] is > 67.5 µM (inactive).

For the molecule `CCc1ccc(N/C(SCc2cccc(F)c2)=C(/C#N)C(=O)NCc2ccco2)cc1`, the figures for the EC50 in [2] and in [4] were 10.4 µM (active) and 1.7 µM (active), respectively. Also, the CC50 in [3] is > 40 µM (active).

In the case of `COc1ccc(CCNC(=O)C(C)n2nc(C)c3c(C)n(-c4ccc(C)cc4)nc3c2=O)c(OC)c1` (stereo unspecified), in assay [5], the IC50 was 5.2 µM (active).

Consider `Cc1ccc(-c2csc(NC(=O)C3CCN(S(=O)(=O)c4cccs4)CC3)n2)cc1`, for which the IC50 in [6] is > 80 µM (inactive); in [7], 8.06 µM (active); in [5] it was 8.11 µM (active).

As for `CN1CCN(c2ccccc2NC(=O)C(Cc2ccccc2)n2cccc2)CC1` (stereo unspecified), the AC50 in assay [8] is 12.3 µM (active); in assay [9] it was 17.5 µM (active); in [10], 6.11 µM (active); in [11], 6.39 µM (active). Besides, the IC50 in assay [12] is > 100 µM (active).

On to `O=C(NCCCn1ccnc1)c1cc(-c2cccs2)on1`, for which the EC50 is > 67.5 µM (inactive) in assay [1]; 12.4 µM (active) in assay [13]; > 350 µM (not active) in assay [14]; 12.3 µM (active) in assay [15]; 13.2 µM (active) in assay [16]; 16.9 µM (active) in assay [17].

On to `Cc1cccc(NC(=O)c2ccc3ccccc3n2)c1C`, for which the EC50 in assay [1] is > 67.5 µM (inactive).

Turning to `COc1cc(NC(=O)COc2cc(O)c3c(c2)OC(C)(C)CC3=O)cc(OC)c1OC`, the AC50 in assay [18] is 5.36 µM (active); in assay [19], 2.04 µM (active); in [20] it was 3.99 µM (active); in assay [21], 354 nM (active); in [22] it was 727 nM (active). Further, the IC50 in assay [6] is 69.1 µM (inactive); in [7], 39.9 µM (inactive); in assay [5], 2.54 µM (active).

As for `Fc1ccc(C(CCCn2nnc(-c3cccnc3)n2)c2ccc(F)cc2)cc1`, the EC50 in assay [13] was 13.7 µM (active); in assay [15], > 120 µM (not active); in assay [2], > 30 µM (not active); in assay [4], 2.22 µM (active); in assay [17], 16.3 µM (active). In addition, in [3], the CC50 is > 40 µM (active).

For `COc1cc(N2Cc3ccccc3C2)ccc1C=O`, the IC50 in assay [23] is > 7 µM (active).

Take `COc1ccc(CCNCc2ccc(C)s2)cc1OC`: the CC50 in [24] was > 40 µM (active). Besides, the IC50 in assay [12] is > 100 µM (active).

In the case of `Cc1c(C(=O)NCc2ccc(C(C)C)cc2)sc(=O)n1Cc1ccc(S(=O)(=O)N(C)C)cc1`, the IC50 in assay [5] was 6.46 µM (active).

As for `C=CCOc1c(CNc2cccc(C(=O)O)c2)cccc1OC`, the IC50 in assay [23] is 2.39 µM (active).

Take `COc1ccc(S(=O)(=O)NC2CC(C)(C)NC(C)(C)C2)c(C)c1C`: the IC50 in assay [12] was > 100 µM (active).

On to `Cc1ccnc(NC(=O)/C=C/c2cccs2)c1`, for which the EC50 in assay [1] is > 67.6 µM (inactive).

As a reminder, the EC50 is the concentration needed to bring the measured effect to its halfway point. Usually CC50 stands for the concentration at which the toxic effect on the cells reaches its halfway point. By IC50 is commonly meant the concentration that inhibits the measured activity by half. By AC50 is commonly meant the concentration giving half of the maximal activity seen.
